The record followed here is patent publication US20210071180A1, “MICRORNA 584-5P COMPOSITIONS AND METHODS FOR TREATING CANCER” (BOARD OF REGENTS, THE UNIVERSY OF TEXAS SYSTEM, priority 2018, published 2021).

Holding throughout (assay type): cell-based
The subject of data set [1] is 3′-UTR of HDAC1. Nature of the data set: Dual luciferase 3′-UTR reporter assay (HDAC1). Particulars: miR-584-5p mimic in comparison with scrambled. The method, then: Dual luciferase assay. Wild-type or mutant 3′-UTR segments of the eIF4E3 and HDAC1 gene were cloned downstream of the luciferase gene in pGL3-promoter vector at the SacI and SpeI restriction sites. HEK293 cells were cotransfected with Renilla luciferase vector (pRLnull 380) and firefly luciferase vector containing pGL3-wt-eIF4E3; pGL3-mut-eIF4E3; or pGL3-wt-HDAC1, pGL3-mut-HDAC1, or pGL3 overnight and incubated in fresh complete medium for an additional 48 hours after transfection. Cells were then transfected with miRNA mimic (Invitrogen) for 24 hours. Next, cells were harvested with 1× passive lysis buffer (Promega) and luciferase activity was read using GLOMAX 20/20 luminometer (Promega).
Data are z-transformed. The cutoff criteria for each gene are fold change >2, sample intensity >10, and p-value <0.05. […] To validate the gene expression analysis and target prediction results, it was determined whether miR-584-5p reduced HDAC1/eIF4E3 expression by binding to their 3′-untranslated regions (3′-UTRs). […] Also shown are the portion of the miR-584-5p sequence (SEQ ID NO: 15; UAUGGUU) that binds to the wild-type 3′UTR and seed sequence mutant (SEQ ID NO: 16; […], top panel; and SEQ ID NO: 17; […]; bottom panel). Also shown is miR-584-5p seed sequence mutated sequences. […] The p-values were calculated using standard Student t-tests. […] The p-values were calculated using standard Student t-tests.
(In general: In a reporter assay the amount or activity of a reporter protein is the signal.)

Data set [2] deals with MB cells. In words: IR dose-response, alamarBlue cell viability assay. Conditions: IR for 24 hours, normalized to 0 Gy. An excerpt:
(§1) FIG. 13C-D show representative immunofluorescence images showing 53BP1 foci in D556Med cells transfected with miR-NC or miR-584-5p mimic (C) or scramble-siRNA or eIF4E3/HDAC1-siRNAs (D) and treated with or without 10 Gy of IR.
VCR is routinely used during and after radiation therapy to treat MB patients (Packer, R. J. et al. J Neurosurg 74, 433-440, (1991)), mainly because microtubule-targeting agents such as VCR enhances the toxic effects of DNA-damaging agents, including radiation (Poruchynsky, M. S. et al. Proc Natl Acad Sci USA 112, 1571-1576, (2015); and Oehler, C. et al. Neuro Oncol 13, 1000-1010, doi:10.1093/neuonc/nor069 (2011)). Moreover, cells in G2/M phase are the most sensitive to IR (Pawlik, T. M. & Keyomarsi, K. Int J Radiat Oncol Biol Phys 59, 928-942, (2004)). […] All values were normalized to 0 Gy. […] Error bars represent mean±SEM. Next, it was determined whether eIF4E3 or HDAC1 may mediate miR-584-5p's IR response. […] All values were normalized to 0 Gy. […] Error bars represent mean±SEM.
A general note: Alamar Blue is a resazurin reagent that responds to reducing activity.

In data set [3] the test system is MB cells. Nature of the data set: 53BP1 nuclear foci immunofluorescence (DNA strand breaks). Conditions: vs scrambled-transfected MB cells. The method, then:
as §1
Bar graphs next to images show average number of 53BP1 foci/cell. The p-values were determined by two-way ANOVA followed by Sidak's multiple-comparisons test. Error bars represent mean±SEM. Because miR-584-5p induces apoptosis, it was reasoned that DNA strand breaks induced by miR-584-5p and eIF4E3/HDAC1 silencing may not be properly repaired. To confirm those findings, a functional assay was performed to monitor homologous recombination (HR) because HR-dependent events repair IR-induced double-strand breaks in G2 phase. The ISceI-based DR-GFP reporter assay, which measures the frequency of double-strand break repair by HR (Gunn, A., Bennardo, N., Cheng, A. & Stark, J. M. Journal of Biological Chemistry 286, 42470-42482, (2011); Pierce, A. J., Johnson, R. D., Thompson, L. H. & Jasin, M. Genes & Development 13, 2633-2638, (1999); and Stark, J. M., Pierce, A. J., Oh, J., Pastink, A. & Jasin, M. Molecular and Cellular Biology 24, 9305-9316, (2004)), was used. […] The p-values were calculated using either Student t-tests (mimic) or one-way ANOVA followed by Dunnett's multiple-comparisons test (siRNAs). […]

Data set [4] concerns MB stem cells. In words: Medullosphere (tumor sphere) formation in serum-free stem cell media. Conditions: D556Med cells. The method, then: (§2) Several research groups have posited the presence of tumor-initiating cells in MBs (Manoranjan, B. et al. Pediatr Res 71, 516-522, (2012)). Moreover, the tumor-initiating cells in general have not responded to radiation and chemotherapy drugs (Manoranj an, B. et al. Pediatr Res 71, 516-522, (2012)). Therefore, it was tested whether miR-584 may inhibit MB tumor-initiating cell proliferation. Consistent with the characteristics of tumor-initiating cells, MB cells cultured in serum-free stem cell media formed tumor spheres that were serially passaged for many cycles (FIG. 14A). Bar graphs show number and size of medullospheres obtained from D556Med cells transfected with miR-NC or miR-584-5p mimic. The p-value was calculated using a standard Student t-test. Error bars represent mean±SEM. […] The p-value was calculated using one-way ANOVA followed by Sidak's multiple-comparisons test. Error bars represent mean±SEM. These findings are highly significant because, this study is one of the first to propose a role for miR-584-5p and its target genes in regulating MB stem cell proliferation.

Data set [5] has as its system neural stem cell markers. In words: qPCR analysis of neural stem cell markers. Particulars: miR-584-5p mimic-transfected cells. The method, then:
as §2
On the technique in general: Quantitative PCR measures a nucleic acid by following its amplification.

In the case of “miR-584-5p: microRNA mimic; nucleotide sequence UUAUGGUUUGCCUGGGACUGAG (SEQ ID NO: 1); purchased from Thermofisher (chemistry not given here)”, in data set [1], the “luciferase activity, HDAC1 3′-UTR with mutated miR-584-5p binding sites” value is recorded as “no change in luciferase activity” and the “luciferase activity, wild-type HDAC1 3′-UTR construct” value is given as “significantly reduced”. Besides, the “sensitivity to IR relative to scrambled-transfected cells” value in data set [2] came to 10 fold. For the same substance, the 53BP1 foci result in data set [3] is “significantly more 53BP1 foci”. The “number and size of medullospheres / MB stem cell proliferation” value in data set [4] was “significantly smaller and fewer spheres”. The “levels of neural stem cell markers” value in data set [5] is recorded as “significantly reduced”.
